Data as given in patent US11505548B2, “Heterocyclic compounds and their use for treatment of helminthic infections and diseases” (Celgene Corporation, priority 2019, dated 2022).

System: microfilariae of Dirofilaria immitis
Assay: Dirofilaria immitis, Microfilaria (DiMF) Assay
Assay type: cell-based
Conditions: in vitro, stage (microfilaria or L4) not given, class A/B/C, read-out: D. immitis activity level (IC50 or MED)
Procedure: Heartworm Screen Dirofilaria immitis (D. immitis)
Dirofilaria immitis, Microfilaria (DiMF) Assay.
Compounds were dissolved and serially diluted in DMSO. Aliquots were spotted to the empty wells of assay plates. Media and microfilariae of Dirofilaria immitis were added to each well to dilute the test compounds to the desired concentrations. Assay plates were incubated for approximately 72 hours, and the larvae in each well were observed microscopically for drug effect. Microfilariae in each well were assessed subjectively for survival or paralysis, and results were reported as Minimum Effective Dose (MED).
Active and selective (DiL4 vs. DiMF potency) example compounds were subsequently evaluated in heartworm positive dog studies to correlate the in vitro selectivity profile with in vivo effects on circulating microfilariae.

Work on “2-(3-(5-isoprop- oxypyridin-2- yl)-1,2,4- thiadiazol-5- ylamino)-N,N- dimethyl-5- (trifluoromethyl) nicotinamide [Compound 250]” yielded an IC50 of under 200 nM.
